Laboratory results: US11839615B2, “Compounds and methods for treating addiction and related disorders” (Astrocyte Pharmaceuticals, Inc., priority 2018, dated 2023)

Key:
cultured astrocytes = assay: Ca2+ measurements in dye-loaded (Cal520) cultured astrocytes; format: cell-based, mouse
Procedure: FIG. 1: AST-004 increases intracellular Ca^2+ in cultured astrocytes. A) Image of resting Ca^2+ levels in dye-loaded (Cal520) astrocytes. B) Spatio-temporal plot of Ca^2+ fluorescence for the vertical line in panel A. AST-004 was added at 2 min. Note the oscillatory Ca^2+ responses for over 6 minutes. C) Plot of integrated Ca^2+ fluorescence intensities (DF/F0) at the indicated A3R agonist concentrations. Values are mean+/−SEM (data pooled from 3 experiments at each concentration). Images were acquired on the Nikon Sweptfield confocal microscope.
The low level stimulation of Ca2+ release persisted throughout the recording (FIG. 1A,B). It was not blocked by pertussis toxin treatment, consistent with Gq-coupling. The integrated Ca^2+ response was also dose-dependent (FIG. 1C) and present in astrocytes cultured from mouse, rat, pig and human brain tissue.
Protocol was modified from McCarthy et al., 1980 (4). Briefly, mice were anesthetized with isoflurane then cervically dislocated. Brains were quickly removed and chopped in trypsin, and allowed to incubate at 37° C. for 30 mins. DMEM/F-12 Media with 10% FCS and primocin was added and brains were triturated to homogenization and filtered through […] mesh, and seeded into culture flasks. The next day, homogenates were transferred to a new flask, and previous flasks had new media added. Cells were grown for 3-4 weeks, with DMEM/F-12 media changes every 3-4 days until cells were 70% confluent.
Ca^2+ activity was imaged as previously described (5). In brief, astrocytes were seeded on glass cover slips 3 and 4 nights before each experiment. Culture dishes were incubated with a fluorescent Ca^2+ sensitive dye (10 μM, Cal520, cell permeant, Abcam) 30 min prior to the experiment. Images were acquired with a confocal laser-scanning microscope at the rate of 1.5 images/s. Data were obtained in recording buffer (120 mM NaCl, 4.5 mM KCl, 1 mm CaCl2), 2 mM MgCl2, 10 mM HEPES, pH 7.4) at room temperature. Images were analyzed with Image J and NIS Elements.

astrocytes (C8-D1A) = assay: Oxygen consumption rate (OCR), Seahorse; format: cell-based
Procedure: FIG. 2: Oxygen Consumption Rate (OCR) is increased by purinergic agonist AST-004. Cultured astrocytes were plated on a standard Seahorse dish (24 well). After establishing basal OCR, purinergic agonist AST-004 or control (antagonist) was added at first arrow. […] The final addition of mitochondrial inhibitors uncovered non-mitochondrial OCR sources.
We previously reported that any agonist stimulating IP3-mediated Ca^2+ increases in astrocytes increased ATP production in astrocytes (1). […] Minimal change was observed under control injections. […] Addition of rotenone and antimycin uncovered non-mitochondrial sources of oxygen consumption, which was subtracted off from all measurements prior to calculations.
OCR was measured to calculate mitochondrial respiration and performed with a Seahorse XF96 extracellular flux analyzer. A 96-well system measures OCR from a monolayer of cultured intact cells, at intervals of ˜5 minutes. Astrocytes were plated on Seahorse microplates at least 2 days prior to OCR measurements. […] Injection of rotenone and antimycin, inhibitors of complex I and III respectively, uncover non-mitochondrial oxygen consumption.

[1] = test system: photothrombosis-induced stroke; assay: Photothrombotic induced model of stroke, lesion volume by TTC staining; format: in vivo, mouse
[2] = test system: astrocytes of transgenic mice expressing the Luciferase-reporter gene (GFAP promoter); assay: In vivo bioluminescent imaging of ATP in astrocytes after blunt TBI; set-up: species or system mouse; conditions: IP injection, two to 4 days after TBI, vs vehicle
Procedure: FIG. 5: In Vivo Bioluminescent Imaging indicates AST-004 increases ATP. A) Transgenic mice expressing the Luciferase-reporter gene in astrocytes (GFAP promoter) were subjected to blunt TBI (Closed Cortical Impact). Two to 4 days after the initial trauma, mice were IP injected with a synthetic D-luciferin analogue (Cytluc1, 100 ul). Bioluminescent signals were recorded with an IVIS Spectrum Imager, 5 min after Cycluc1 injection (green arrow). Mice were then IP injected with either vehicle or AST-004 at […] (blue arrow), the photon flux immediately measured and then compared to the photon flux at 20 minutes (red arrow).
Transgenic mice expressing the Luciferase-reporter gene in astrocytes (GFAP promoter, Dual-Glo mice, Jackson laboratories) were subjected to blunt TBI (Closed Cortical Impact). Two to 4 days after the initial trauma, mice were IP injected with a synthetic D-luciferin analogue (Cycluc 1) and bioluminescent signals recorded on an IVIS Spectrum Imager (FIG. 5A).

astrocytes = assay: Determination of ATP levels in astrocytes (luciferin-luciferase kit), control or GLUD1 shRNA; format: cell-based
Procedure: FIG. 7: GLUD1 Knockdown (KD) in astrocytes blocks P2Y1R and A3R-stimulated increases in ATP. A, B) Cells were treated with P2Y1R agonist MRS2365 for 20 mins in either normal glucose medium (A) or a glucose-free, galactose (B) supplemented media. Galactose forces cells to use oxidative phosphorylation for energy metabolism. […] Intracellular ATP levels were measured with a luciferin-luciferase kit.
P2Y1R and A3R agonists increased mitochondrial ATP production in astrocytes in a manner that was dependent on GLUD1 expression. One possible hypothesis is that glutamate catabolism into α-KG is mediated by GLUD1, which is enhanced by Ca^2+ dependent stimulation of the ICDH and α-KGDH in the TCA cycle. To test this hypothesis, GLUD1 expression levels were reduced in astrocyte cultures by incubating cells with specific shRNA. […] We repeated these experiments in the presence of galactose, a carbon source that forces cells to generate ATP though oxidative phosphorylation, since glycolysis of galactose is ATP neutral.
Cells were transduced with shRNA lentivirus constructs obtained from Santa Cruz (glud1 #145446-V, for Scrambled #108080). Cells were then seeded at single cell/well densities in a 96-well dish and selected for with puromycin. Clones were grown and tested for knockdown by western blot.
Astrocytes were plated at a density of 3000-5000 cells/well in a white, opaque-bottom 96-well dish (Corning). If cells were tested in galactose medium, they were seeded in galactose medium, and left for a minimum of 16 hours before subjected to treatment. Galactose medium was made with glucose-, pyruvate-, phenol-, and glutamine-free DMEM (Gibco) which was then supplemented with 0.9 mg/ml galactose (Sigma), pyruvate (Quality biological, Inc), and 10% dialyzed FBS (Gibco). Treatments were performed for 20 min unless otherwise stated and concentrations of drugs described elsewhere. Drugs used: MRS2365, MRS2500, AST-004, 3-Propyl-6-ethyl-5-[(ethylthio)carbonyl]-2 phenyl-4-propyl-3-pyridine carboxylate (MRS1523) (Tocris Bioscience), sodium dichloroacetate (DCA) (Sigma Aldrich), Oligomycin (Sigma Aldrich), 1-(2-(2-tert-Butylphenoxy)pyridin-3-yl)-3-(4-(trifluoromethoxy)phenyl)urea (BPTU) (Millipore), and Ruthenium 360 (Cal Biochem). Next, media was removed from cells, and 100 μl fresh media immediately added. Then, 95 μl of mixed luminescence substrate from the ATPlite 1-Step kit were added (Perkin-Elmer). Plates were wrapped in aluminum foil and shaken for 3 min on a plate rotator before reading on a luminometer. Readings were normalized to protein as determined by Coomassie Plus Bradford assay (Thermo Fisher). All statistics were analyzed using GraphPad Prism software.

[3] = test system: cocaine self-administering mice; assay: Cocaine self-administration; format: in vivo, mouse; conditions: osmotic minipump, 100 μL at 2.78 mM
Procedure: Data that are normalized to each mouse's individual cocaine intake at baseline. Mice were trained to self-administer cocaine (0.5 mg/kg/infusion) on a fixed ratio 3 schedule in 2-hr daily sessions. After their intake stabilized (baseline) mice were implanted with osmotic minipumps on day 0 either containing saline (filled circles) or the drug AST-004 (open circles), n=5 mice in each group. Mice were given a day off (day 7), then returned to self-administration in daily sessions. Note the number of infusions goes down in the AST-004 treated mice, while saline treated mice increased infusions.
We used procedures adapted from our recently published work that describes i.v. cocaine self-administration in fully fed mice (6, 7). Male C57BL/6J mice (6 to 7-week-old) purchased from Jackson labs and were kept on a 12/12-hour reverse light-dark cycle (lights off at 0900 h) with ad libitum access to food and water. Cocaine hydrochloride (generously provided by the NIDA drug supply program, Bethesda, MD) was dissolved in sterile physiological saline (NaCl 0.9%). Cocaine was prepared at a concentration that delivers 0.5 mg/kg/12 μL per infusion, based on a typical weight of a young adult mouse (28 g). Mice were implanted with an indwelling catheter in the right jugular vein. […]

[4] = test system: traumatic brain injury (TBI); assay: Traumatic brain injury (TBI), GFAP expression by Western blot; conditions: for TBI induced increases in GFAP expression: treatment 30 min post-TBI, ipsilateral brain homogenates and plasma at day 7, vs TBI untreated
Procedure: Mice underwent sham or TBI (on Ipsilateral side of brain) and received treatments as labeled 30 min post-TBI. Plasma was obtained from mice at 7 days post-injury, then sacrificed to obtain brain homogenates from the ipsilateral and contralateral hemispheres (middle third). Western blot analysis were normalized to actin. (A and C) Representative blots are shown for Ipsilateral brain homogenates and the plasma at day 7. (B and D) Data were pooled from 3 distinct experiments (N=number of mice per treatment) and plotted as bar histograms, shown as mean of control+/−SEM. *p<0.05 and ** p<0.01 from TBI untreated (dark gray bar).

[5] = 20 min treatment, normal glucose medium

Row | Structure (SMILES) | integrated Ca2+ response (cultured astrocytes; astrocytes cultured from mouse, rat, pig and human brain tissue) | intracellular Ca2+ (cultured astrocytes; cultured astrocytes, Cal520 dye) | stimulation of Ca2+ release under pertussis toxin treatment (cultured astrocytes; pertussis toxin treatment, consistent with Gq-coupling) | ATP production (OCR revealed by oligomycin) (astrocytes (C8-D1A); 400 nM) | basal respiration (OCR) (astrocytes (C8-D1A); after addition to the bath at 15 minutes, vs control injections) | maximal respiration (OCR after FCCP) (astrocytes (C8-D1A); uncoupling by FCCP) | stroke infarction volume ([1]; 0.2 mg/kg, intraperitoneally within 30 min post stroke, 24 hours post-stroke, vs vehicle) | photon flux levels (ATP-production in astrocytes) [2] | ATP levels, control cells (scrambled shRNA) (astrocytes; [5]) | cocaine self-administration ([3]; FR3, 2-hr daily sessions, vs saline) | cocaine intake normalized to baseline ([3]; over 2 weeks, n=5) | neuroprotection after traumatic brain injury (TBI) ([4]; mice) | TBI induced increases in GFAP expression [4] | reduction of stroke infarction volume by AST-004 after antagonist pretreatment ([1]; pretreatment with the A3R antagonist) | ATP levels, control cells (scrambled shRNA), galactose medium (astrocytes; 20 min treatment, glucose-free, galactose supplemented media) | ATP levels, astrocytes with reduced levels of GLUD1 (GLUD1 shRNA) (astrocytes; [5]) | ATP levels, astrocytes with reduced GLUD1 levels, galactose medium (astrocytes; in the presence of galactose)
1 | CSc1nc(N)c2ncn([C@H]3[C@H](O)[C@H](O)[C@]4(CO)C[C@H]34)c2n1 [AST-004] | dose-dependent | stimulates intracellular Ca2+ | not blocked | significantly greater | increased | significantly higher | significantly reduced | significantly higher | increased ATP levels in a GLUD1-dependent manner | significantly reduces | approximately 60 % of baseline | neuroprotective | reduced | – | – | – | –
2 | CCCOC(=O)c1c(-c2ccccc2)nc(CC)c(C(=O)SCC)c1CCC [MRS1523, 3-Propyl-6-ethyl-5-[(ethylthio)carbonyl]-2 phenyl-4-propyl-3-pyridine carboxylate, reference compound] | – | – | – | – | – | – | – | – | – | – | – | – | – | blocked | – | – | –
3 | CSc1nc(N)c2ncn([C@H]3[C@H](O)[C@H](O)[C@]4(COP(=O)(O)OP(=O)(O)O)C[C@H]34)c2n1 [MRS2365] | – | – | – | – | – | – | – | – | significantly increased | – | – | – | reduced | – | significantly increased | not responsive | similarly non-responsive
